Results reported in patent US5049380A, “Anti-allergic extract” (Bar-Ilan University, priority 1989, dated 1991).

Tested on: potato 5-lipoxygenase
Assay: Inhibition of potato 5-lipoxygenase, arachidonic acid oxidation, polarographic
Type: biochemical
Conditions: caffeic acid 0.33 mM final concentration, AA 313 2 mg.
Procedure: A reaction mixture containing 1050 units potato 5-lipoxygenase was subjected to the action of the known inhibitor caffeic acid as well as to 2 mg AA 313. Enzyme activity was tested by the ability of a sample of the reaction mixture to oxidize arachidonic acid (concentration of 0.33 mM). […] Enzyme activity was estimated polarographically.

% Inhibition: 64%
Enzyme activity (units) (control 1050 units): 375 units
SMILES: O=C(O)/C=C/c1ccc(O)c(O)c1 [caffeic acid]
